Laboratory results from PubChem BioAssay AID330 (DTP/NCI, 2004).
Values joined by “and” are separate entries in the source; they are usually repeats but may differ in a detail not shown here. Equal entries are not always repeated. Toxic doses and inconclusive results are not listed.

Test system: P388 leukemia ip, CD2F1 mice, survival T/C
Experiment: NCI In Vivo Anticancer Drug Screen. Data for tumor model P388 Leukemia (intraperitoneal) in CD2F1 (CDF1) mice
Conditions: endpoint: median survival time, higher = longer survival
Procedure, shortened: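 Mice carrying the transplanted tumor received test compound or vehicle. Survival was recorded in each group, and the value is the treated-group measurement divided by that of the vehicle-treated control group.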

[1] = dose: 50.0 mg/kg/injection, schedule: Q01DX009 (ip), vehicle: saline
[2] = dose: 100.0 mg/kg/injection, schedule: Q01DX009 (ip), vehicle: saline
[3] = dose: 200.0 mg/kg/injection, schedule: Q01DX009 (ip), vehicle: saline
[4] = dose: 50.0 mg/kg/injection, schedule: Q01DX005 (ip), vehicle: saline with Tween-80
[5] = dose: 100.0 mg/kg/injection, schedule: Q01DX005 (ip), vehicle: saline with Tween-80
[6] = dose: 200.0 mg/kg/injection, schedule: Q01DX005 (ip), vehicle: saline with Tween-80
[7] = dose: 50.0 mg/kg/injection, schedule: Q01DX009 (ip), vehicle: saline with Tween-80
[8] = dose: 100.0 mg/kg/injection, schedule: Q01DX009 (ip), vehicle: saline with Tween-80
[9] = dose: 200.0 mg/kg/injection, schedule: Q01DX009 (ip), vehicle: saline with Tween-80
[10] = dose: 100.0 mg/kg/injection, schedule: Q04DX002 (ip), vehicle: saline with Tween-80
[11] = dose: 200.0 mg/kg/injection, schedule: Q04DX002 (ip), vehicle: saline with Tween-80

Q: With CSc1nc(NC2OCC(OC(C)=O)C(OC(C)=O)C2OC(C)=O)c(N=CC=Nc2c(NC3OCC(OC(C)=O)C(OC(C)=O)C3OC(C)=O)nc(SC)n(C)c2=O)c(=O)n1C (stereo not drawn) as the compound, how does the T/C (dose: 60.0 mg/kg/injection, schedule: Q01DX005 (ip), vehicle: saline with Tween-80) read?
A: 95 % of control

Q: What about the T/C (dose: 120.0 mg/kg/injection, schedule: Q01DX005 (ip), vehicle: saline with Tween-80) of the same compound?
A: 91 % of control

Q: And the T/C (dose: 240.0 mg/kg/injection, schedule: Q01DX005 (ip), vehicle: saline with Tween-80)?
A: 92 % of control

Q: For CNC1=CC(=O)c2c(c3cc(OC(C)=O)ccc3n2C)C1=O, which T/C [1] is on record?
A: 99 % of control

Q: What about the T/C [2] of the same compound?
A: 99 % of control

Q: What about the T/C [3] of the same compound?
A: 100 % of control

Q: What does the source list for c1ccc(/C(=N\Nc2ccc3ccccc3n2)c2ccccn2)cc1?
A: T/C [4]: 110 % of control; T/C [5]: 94 % of control; T/C [6]: 100 % of control

Q: Which results are given for CCCCCC1(O)OC(=O)C(C)=C1C (stereo not drawn)?
A: T/C (dose: 12.5 mg/kg/injection, schedule: Q04DX003 (ip), vehicle: saline): 100 % of control; T/C (dose: 25.0 mg/kg/injection, schedule: Q04DX003 (ip), vehicle: saline): 100 % of control; T/C (dose: 50.0 mg/kg/injection, schedule: Q04DX003 (ip), vehicle: saline): 122 % of control

Q: CC(=O)OC1C(Br)C2CC1C1(Cl)C(=O)C(Cl)=C(Cl)C(=O)C21Cl (stereo not drawn) was tested. Which T/C [1] did it give?
A: 99 % of control

Q: What about the T/C [2] of the same compound?
A: 101 % of control

Q: What about the T/C [3] of the same compound?
A: 99 % of control

Q: With COC1(OC)C2C=CC1CC2 as the compound, how does the T/C [7] read?
A: 107 % of control and 116 % of control

Q: And the T/C [8]?
A: 101 % of control

Q: And the T/C [9]?
A: 109 % of control

Q: O=[N+]([O-])c1ccccc1-c1ccccc1N=Cc1ccccc1 was tested. Which T/C (dose: 6.25 mg/kg/injection, schedule: Q01DX009 (ip), vehicle: saline with Tween-80) did it give?
A: 96 % of control

Q: And the T/C (dose: 12.5 mg/kg/injection, schedule: Q01DX009 (ip), vehicle: saline with Tween-80)?
A: 106 % of control

Q: And the T/C (dose: 25.0 mg/kg/injection, schedule: Q01DX009 (ip), vehicle: saline with Tween-80)?
A: 86 % of control

Q: For Nc1ccc2nc[nH]c2c1, which T/C (dose: 25.0 mg/kg/injection, schedule: Q04DX002 (ip), vehicle: Klucel (hydroxypropylcellulose) (HPC)) is on record?
A: 101 % of control

Q: And the T/C (dose: 50.0 mg/kg/injection, schedule: Q04DX002 (ip), vehicle: Klucel (hydroxypropylcellulose) (HPC))?
A: 104 % of control

Q: What about the T/C (dose: 100.0 mg/kg/injection, schedule: Q04DX002 (ip), vehicle: Klucel (hydroxypropylcellulose) (HPC)) of the same compound?
A: 101 % of control and 90 % of control

Q: Which T/C (dose: 50.0 mg/kg/injection, schedule: Q01DX005 (ip), vehicle: saline) does the source give for c1ccc(CON(CCc2ccccn2)CCc2ccccn2)cc1 here?
A: 97 % of control

Q: And the T/C (dose: 100.0 mg/kg/injection, schedule: Q01DX005 (ip), vehicle: saline)?
A: 98 % of control

Q: What about the T/C (dose: 200.0 mg/kg/injection, schedule: Q01DX005 (ip), vehicle: saline) of the same compound?
A: 98 % of control

Q: What does the source list for COC(=O)C1C/C=C\C=C/N(C)C1=O (stereo not drawn)?
A: T/C [10]: 102 % of control; T/C [11]: 101 % of control; T/C (dose: 400.0 mg/kg/injection, schedule: Q04DX002 (ip), vehicle: saline with Tween-80): 101 % of control

Q: With CC(=O)c1cccc(NC2C(N)C(NC(=O)N(C)C)(C(C)O)C(C)(O)C2(O)COC(=O)c2c(C)cccc2O)c1 (stereo not drawn) as the compound, how does the T/C (dose: 0.5 mg/kg/injection, schedule: Q01DX009 (ip), vehicle: other) read?
A: 86 % of control

Q: And the T/C (dose: 1.0 mg/kg/injection, schedule: Q01DX009 (ip), vehicle: other)?
A: 153 % of control

Q: What about the T/C (dose: 1.5 mg/kg/injection, schedule: Q01DX009 (ip), vehicle: acid diluted with saline) of the same compound?
A: 86 % of control

Q: How did the T/C [1] turn out when CCOC(=O)CC(=O)C(OC)OC was run?
A: 106 % of control

Q: And the T/C [2]?
A: 105 % of control

Q: What about the T/C [3] of the same compound?
A: 102 % of control

Q: And the T/C (dose: 400.0 mg/kg/injection, schedule: Q01DX009 (ip), vehicle: saline)?
A: 98 % of control

Q: What does the source list for Cc1ccc(NC(=O)Oc2ccc(F)cc2)c([N+](=O)[O-])c1?
A: T/C [7]: 96 % of control; T/C [8]: 95 % of control; T/C [9]: 88 % of control

Q: CCOC(=O)C(C)c1ccccc1-c1cccc(OC)c1 (stereo not drawn) was tested. Which T/C [4] did it give?
A: 94 % of control

Q: What about the T/C [5] of the same compound?
A: 97 % of control

Q: What about the T/C [6] of the same compound?
A: 103 % of control

Q: What does the source list for FC(F)(F)COP1OCCS1 (stereo not drawn)?
A: T/C (dose: 12.5 mg/kg/injection, schedule: Q04DX002 (ip), vehicle: saline with Tween-80): 99 % of control; T/C (dose: 25.0 mg/kg/injection, schedule: Q04DX002 (ip), vehicle: saline with Tween-80): 99 % of control; T/C (dose: 50.0 mg/kg/injection, schedule: Q04DX002 (ip), vehicle: saline with Tween-80): 98 % of control; T/C [10]: 100 % of control; T/C [11]: 104 % of control
